Results from patent US6274715A, “Tricyclic erythromycin derivatives” (priority 1997, dated 2001).
Values after ≈ are worked out from the molar mass of the structure shown.

Columns and labels:
Format in all cases: cell-based
[1] = tested on: MYCOBACTERIUM SMEGMATIS ATCC 114; test: In vitro antibacterial activity, MIC, BHI agar dilution; conditions: M. smegmatis ATCC 114, unit assumed
[2] = tested on: STAPHYLOCOCCUS AUREUS 1775; test: as above; conditions: S. aureus 1775, unit assumed
[3] = tested on: PSEUDOMONAS CEPACIA 296I; test: as above; conditions: P. cepacia 296I, unit assumed
[4] = tested on: M[…] ATCC 9341; test: as above; conditions: M. luteus ATCC 9341, unit assumed
Outline: (§1)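 Agar dilution in BHI: plates inoculated with 1:100 dilutions of organisms (1:10 for Micrococcus and Streptococcus), incubated 20-24 h at 35-37° C, then inspected for the lowest inhibitory concentration against a drug-free growth control.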

[5] = tested on: M[…] ATCC 4698; test: as above; conditions: M. luteus ATCC 4698, unit assumed
Outline: as §1

[6] = tested on: EN[…] ATCC 8043; test: as above; conditions: E. faecium ATCC 8043, unit assumed
Outline: as §1

[7] = tested on: STR[…] 508; test: as above; conditions: S. agalactiae CMX 508, unit assumed
Outline: as §1

[8] = tested on: STAPHYLOCOCCUS AUREUS CMX 553; test: as above; conditions: S. aureus CMX 553, unit assumed
[9] = tested on: STREPTOCOCCUS BOVIS A-5169; test: as above; conditions: S. bovis A-5169, unit assumed
[10] = tested on: STAPHYLOCOCCUS AUREUS CMX 642A; test: as above; conditions: S. aureus CMX 642A, unit assumed
[11] = tested on: ESCHERICHIA COLI H560; test: as above; conditions: E. coli H560, unit assumed
[12] = tested on: ENTEROBACTER AEROGENES ATCC 13048; test: as above; conditions: E. aerogenes ATCC 13048, unit assumed
[13] = tested on: PSEUDOMONAS AERUGINOSA DPHD-2862; test: as above; conditions: P. aeruginosa DPHD-2862, unit assumed
[14] = tested on: PSEUDOMONAS AERUGINOSA 5007; test: as above; conditions: P. aeruginosa 5007, unit assumed
[15] = tested on: STAPHYLOCOCCUS EPIDERMIDIS 3519; conditions: S. epidermidis 3519; BHI agar; unit assumed
[16] = tested on: PROVIDENCIA STUARTII CMX 640; conditions: P. stuartii CMX 640; BHI agar; unit assumed
[17] = tested on: CANDIDA ALBICANS CCH 442; test: In vitro antibacterial activity, MIC, BHI agar dilution; conditions: C. albicans CCH 442, unit assumed
[18] = tested on: ESCHERICHIA COLI DC-2; test: as above; conditions: E. coli DC-2, unit assumed
[19] = tested on: ESCHERICHIA COLI KNK 437; conditions: E. coli KNK 437; BHI agar; unit assumed
[20] = tested on: PSEUDOMONAS AERUGINOSA BMH10; test: In vitro antibacterial activity, MIC, BHI agar dilution; conditions: P. aeruginosa BMH10, unit assumed
[21] = tested on: STAPHYLOCOCCUS AUREUS ATCC 6538P; test: as above; conditions: S. aureus ATCC 6538P, 35-37° C., 20 to 24 hours, unit assumed
[22] = tested on: ESCHERICHIA COLI JUHL; conditions: E. coli JUHL; BHI agar; unit assumed
[23] = tested on: ESCHERICHIA COLI SS; test: In vitro antibacterial activity, MIC, BHI agar dilution; conditions: E. coli SS, unit assumed
[24] = tested on: STAPHYLOCOCCUS AUREUS A5177; test: as above; conditions: S. aureus A5177, unit assumed
[25] = tested on: STAPHYLOCOCCUS AUREUS A-5278; test: as above; conditions: S. aureus A-5278, unit assumed
[26] = tested on: STREPTOCOCCUS PYOGENES 930; test: as above; conditions: S. pyogenes 930, unit assumed
[27] = tested on: PSEUDOMONAS AERUGINOSA K799/WT; test: as above; conditions: P. aeruginosa K799/WT, unit assumed
[28] = tested on: KLEBSIELLA PNEUMONIAE ATCC 8045; test: as above; conditions: K. pneumoniae ATCC 8045, unit assumed
[29] = tested on: PSEUDOMONAS AERUGINOSA DPHD-5263; test: as above; conditions: P. aeruginosa DPHD-5263, unit assumed
[30] = tested on: STREPTOCOCCUS PYOGENES PIU 2548; test: as above; conditions: S. pyogenes PIU 2548, unit assumed
[31] = tested on: STAPHYLOCOCCUS AUREUS NCTC10649M; test: as above; conditions: S. aureus NCTC10649M, unit assumed
[32] = tested on: STREPTOCOCCUS PYOGENES EES61; test: as above; conditions: S. pyogenes EES61, unit assumed
[33] = tested on: PSEUDOMONAS AERUGINOSA K799/61; test: as above; conditions: P. aeruginosa K799/61, unit assumed

CC[C@H]1OC(=O)[C@H](C)C(=O)[C@H](C)[C@@H](O[C@@H]2O[C@H](C)C[C@H](N(C)C)[C@H]2O)[C@](C)(OC)C[C@@H](C)C2=N[C@H](COCc3ccccc3F)CN3C(=O)O[C@@]1(C)[C@H]3[C@H]2C [Example 102]
MIC [1]: 0.01 µg/mL (≈ 0.0129 µM) | MIC [2]: > 100 µg/mL | MIC [3]: 50 µg/mL (≈ 64.4 µM) | MIC [4]: ≤ 0.005 µg/mL | MIC [5]: 0.02 µg/mL (≈ 0.0258 µM) | MIC [6]: 0.01 µg/mL (≈ 0.0129 µM) | MIC [7]: 0.01 µg/mL (≈ 0.0129 µM) | MIC [8]: 0.1 µg/mL (≈ 0.129 µM) | MIC [9]: 0.01 µg/mL (≈ 0.0129 µM) | MIC [10]: 0.2 µg/mL (≈ 0.258 µM) | MIC [11]: 50 µg/mL (≈ 64.4 µM) | MIC [12]: > 100 µg/mL | MIC [13]: > 100 µg/mL | MIC [14]: > 100 µg/mL | MIC [15]: 0.2 µg/mL (≈ 0.258 µM) | MIC [16]: > 100 µg/mL | MIC [17]: > 100 µg/mL | MIC [18]: > 100 µg/mL | MIC [19]: > 100 µg/mL | MIC [20]: > 100 µg/mL | MIC [21]: 0.2 µg/mL (≈ 0.258 µM) | MIC [22]: 100 µg/mL (≈ 129 µM) | MIC [23]: 0.39 µg/mL (≈ 0.503 µM) | MIC [24]: 0.1 µg/mL (≈ 0.129 µM) | MIC [25]: > 100 µg/mL | MIC [26]: > 100 µg/mL | MIC [27]: > 100 µg/mL | MIC [28]: > 100 µg/mL | MIC [29]: > 100 µg/mL | MIC [30]: 0.2 µg/mL (≈ 0.258 µM) | MIC [31]: 0.1 µg/mL (≈ 0.129 µM) | MIC [32]: 0.01 µg/mL (≈ 0.0129 µM) | MIC [33]: 3.1 µg/mL (≈ 4 µM)

CC[C@H]1OC(=O)[C@H](C)C(=O)[C@H](C)[C@@H](O[C@@H]2O[C@H](C)C[C@H](N(C)C)[C@H]2O)[C@](C)(OC)C[C@@H](C)C2=N[C@H](COCc3ccc(Br)cc3)CN3C(=O)O[C@@]1(C)[C@H]3[C@H]2C [Example 103]
MIC [1]: 0.2 µg/mL (≈ 0.239 µM) | MIC [2]: 100 µg/mL (≈ 119 µM) | MIC [3]: 50 µg/mL (≈ 59.7 µM) | MIC [4]: ≤ 0.005 µg/mL | MIC [5]: ≤ 0.005 µg/mL | MIC [6]: ≤ 0.005 µg/mL | MIC [7]: ≤ 0.005 µg/mL | MIC [8]: 0.05 µg/mL (≈ 0.0597 µM) | MIC [9]: ≤ 0.005 µg/mL | MIC [10]: 0.05 µg/mL (≈ 0.0597 µM) | MIC [11]: 100 µg/mL (≈ 119 µM) | MIC [12]: > 100 µg/mL | MIC [13]: > 100 µg/mL | MIC [14]: > 100 µg/mL | MIC [15]: 0.05 µg/mL (≈ 0.0597 µM) | MIC [16]: > 100 µg/mL | MIC [17]: 50 µg/mL (≈ 59.7 µM) | MIC [18]: 100 µg/mL (≈ 119 µM) | MIC [19]: > 100 µg/mL | MIC [20]: > 100 µg/mL | MIC [21]: 0.05 µg/mL (≈ 0.0597 µM) | MIC [22]: 100 µg/mL (≈ 119 µM) | MIC [23]: 0.39 µg/mL (≈ 0.466 µM) | MIC [24]: 0.05 µg/mL (≈ 0.0597 µM) | MIC [25]: 100 µg/mL (≈ 119 µM) | MIC [26]: 25 µg/mL (≈ 29.9 µM) | MIC [27]: > 100 µg/mL | MIC [28]: > 100 µg/mL | MIC [29]: > 100 µg/mL | MIC [30]: 0.05 µg/mL (≈ 0.0597 µM) | MIC [31]: 0.05 µg/mL (≈ 0.0597 µM) | MIC [32]: ≤ 0.005 µg/mL | MIC [33]: 0.78 µg/mL (≈ 0.932 µM)

CC[C@H]1OC(=O)[C@H](C)C(=O)[C@H](C)[C@@H](O[C@@H]2O[C@H](C)C[C@H](N(C)C)[C@H]2O)[C@](C)(OC)C[C@@H](C)C2=NC3CCCC3N3C(=O)O[C@@]1(C)[C@H]3[C@H]2C (stereo partly drawn) [Example 107]
MIC [1]: 1.56 µg/mL (≈ 2.3 µM) | MIC [2]: > 100 µg/mL | MIC [3]: > 100 µg/mL | MIC [4]: 0.05 µg/mL (≈ 0.0738 µM) | MIC [5]: 0.39 µg/mL (≈ 0.575 µM) | MIC [6]: 0.1 µg/mL (≈ 0.148 µM) | MIC [7]: 0.02 µg/mL (≈ 0.0295 µM) | MIC [8]: 0.78 µg/mL (≈ 1.15 µM) | MIC [9]: 0.01 µg/mL (≈ 0.0148 µM) | MIC [10]: 0.78 µg/mL (≈ 1.15 µM) | MIC [11]: 50 µg/mL (≈ 73.8 µM) | MIC [12]: > 100 µg/mL | MIC [13]: > 100 µg/mL | MIC [14]: > 100 µg/mL | MIC [15]: 0.78 µg/mL (≈ 1.15 µM) | MIC [16]: > 100 µg/mL | MIC [17]: > 100 µg/mL | MIC [18]: > 100 µg/mL | MIC [19]: > 100 µg/mL | MIC [20]: > 100 µg/mL | MIC [21]: 0.78 µg/mL (≈ 1.15 µM) | MIC [22]: > 100 µg/mL | MIC [23]: 0.39 µg/mL (≈ 0.575 µM) | MIC [24]: 0.78 µg/mL (≈ 1.15 µM) | MIC [25]: > 100 µg/mL | MIC [26]: > 100 µg/mL | MIC [27]: > 100 µg/mL | MIC [28]: > 100 µg/mL | MIC [29]: > 100 µg/mL | MIC [30]: 0.39 µg/mL (≈ 0.575 µM) | MIC [31]: 0.78 µg/mL (≈ 1.15 µM) | MIC [32]: 0.02 µg/mL (≈ 0.0295 µM) | MIC [33]: 6.2 µg/mL (≈ 9.15 µM)
